Measurements: patent EP2154155B1, “Analysis of agonist-activity and antagonist-activity to cytokinin receptor” (Sumitomo Chemical Company, Limited, priority 2001, dated 2002)

Columns and labels:
[1] = tested on: Arabidopsis thaliana cytokinin receptor AHK3, SEQ ID No: 4, expressed in transformed cell TM182-AHK3; test: Agonist-activity search: optical density of TM182-AHK3 liquid culture in 96-well plate; assay type: cell-based; details: examinee substance 100 µM at the final concentration, DOLU + Glu medium, 30°C, 24 hours, DMSO blank 0.51
Description: (§2) The pre-cultured solutions were diluted with DOLU + Glu media as to become 0.100 as the optical density (OD600) and further the resultants were diluted with DOLU + Glu media at a dilution rate of 1/200 to obtain diluted pre-cultured solutions.
(§3) An assay plate was prepared by filling respective wells of a 96-well plate with 20 µl of solutions which were prepared by diluting DMSO solution (10mM) of each examinee substance with DOLU + Glu medium at a dilution rate of 1/100, said solutions containing each examinee substance to be 100 µM at the final concentration. Simultaneously, an assay plate only filled with 20 µl of solutions which were prepared by diluting DMSO solution with DOLU + Glu medium, said solutions containing no examinee substance, was prepared as the blank sections.
(§4) The diluted pre-cultured solutions were added in 200 µl each into the respective wells of both assay plates and cultured at 30°C for 24 hours and then the optical density (OD620) of each well was measured by a plate reader. The agonist-activity of the examinee substances to the cytokinin receptor was detected by comparing the optical density measured in the testing sections to which the examinee substances were added with the optical density measured in the blank sections.

[2] = tested on: Arabidopsis thaliana cytokinin receptor AHK2, SEQ ID No: 2, expressed in transformed cell TM182-AHK2; test: Agonist-activity search: optical density of TM182-AHK2 liquid culture in 96-well plate; assay type: cell-based; details: examinee substance 100 µM at the final concentration, DOLU + Glu medium, 30°C, 24 hours, DMSO blank 0.01
Description: as §2, §3, §4

[3] = tested on: Arabidopsis thaliana cytokinin receptor AHK2 variant AHK2Δ (partially transmembrane region-deleted type, amino acid number 196 to 1176 of SEQ ID No: 2) …; test: Agonist-activity search: optical density of TM182-AHK2Δ liquid culture in 96-well plate; details: examinee substance 100 µM at the final concentration, DOLU + Glu medium, 30°C, 24 hours, DMSO blank 0
Description: The transformed cells TM 182-CRE 1, TM182-AHK2,TM182-AHK2 Δ and TM182-AHK3 produced in the example 12 were inoculated in 200 ml of DOLU + Gal culture media and pre-cultured at 30°C for 36 hours. The pre-cultured solutions were diluted with DOLU + Glu media as to become 0.100 as the optical density (OD600) and further the resultants were diluted with DOLU + Glu media at a dilution rate of 1/200 to obtain diluted pre-cultured solutions.
An assay plate was prepared by filling respective wells of a 96-well plate with 20 µl of solutions which were prepared by diluting DMSO solution (10mM) of each examinee substance with DOLU + Glu medium at a dilution rate of 1/100, said solutions containing each examinee substance to be 100 µM at the final concentration. […]
as §4

[4] = tested on: Arabidopsis thaliana cytokinin receptor AHK2, SEQ ID No: 2, expressed in transformed cell TM182-AHK2; details: 30°C, 30 hours
Description: (§1) More particularly, for example, in the case of using a transformed cell (that is, a transformed cell having a function of directly controlling the cell growth by intracellular signal transduction from the cytokinin receptor) produced using TM182 (sln1 Δ) [Maeda T et al, Nature 369: 242-245 (1994)], a SLN1 genetically defected strain in which, for example, PTP2 Tyrosine phosphatase gene [Ota et al. Proc. N. A. Sci., USA, 89, 2355-2359 (1992)] is introduced as a host cell, the agonist-activity to the cytokinin receptor may be measured using, as an indicator, the quantity of the cell growth of the transformed cell in a culture medium (an agar culture medium or a liquid culture medium) containing glucose as a carbon source, for example, a DOLU + Glu culture medium. In the case of the DOLU + Glu culture medium to which the examinee substance is added, the examinee substance found capable of growing the transformed cell can be evaluated as a substance having the agonist-activity to the cytokinin receptor. On the other hand, in the case of the DOLU+Glu culture medium to which the examinee substance and a substance having the agonist-activity to the cytokinin receptor are added, the examinee substance found capable of suppressing or inhibiting the growth of the transformed cell can be evaluated as a substance having the antagonist-activity to the cytokinin receptor. […]

[5] = tested on: Arabidopsis thaliana cytokinin receptor CRE1, SEQ ID No: 6, expressed in transformed cell TM182-CRE1; test: Growth of transformed yeast cells TM182-CRE1 spotted on DOLU + Glu agar media containing cytokinin; assay type: cell-based; details: 30°C, 30 hours; for lowest observed supply concentration in which the transformed cells could be grown: DOLU + Glu agar media, cytokinin 1 nM to 100 µM
Description: More particularly, for example, in the case of using a transformed cell (that is, a transformed cell having a function of directly controlling the cell growth by intracellular signal transduction from the cytokinin receptor) produced using TM182 (sln1 Δ) [Maeda T et al, Nature 369: 242-245 (1994)], a SLN1 genetically defected strain in which, for example, PTP2 Tyrosine phosphatase gene [Ota et al. Proc. N. A. Sci., USA, 89, 2355-2359 (1992)] is introduced as a host cell, the agonist-activity to the cytokinin receptor may be measured using, as an indicator, the quantity of the cell growth of the transformed cell in a culture medium (an agar culture medium or a liquid culture medium) containing glucose as a carbon source, for example, a DOLU + Glu culture medium. In the case of the DOLU + Glu culture medium to which the examinee substance is added, the examinee substance found capable of growing the transformed cell can be evaluated as a substance having the agonist-activity to the cytokinin receptor. On the other hand, in the case of the DOLU+Glu culture medium to which the examinee substance and a substance having the agonist-activity to the cytokinin receptor are added, the examinee substance found capable of suppressing or inhibiting the growth of the transformed cell can be evaluated as a substance having the antagonist-activity to the cytokinin receptor.
Transformation of TM182 (sln1Δ), SLN1 genetically detected strain, [Maeda T et al. Nature: 369 242-245 (1994)] was carried out using the obtained expression plasmid p415CYC-CRE1 (the example 5), p415CYC-AHK2 (the example 11), p415CYC-AHK2 Δ (the example 11) and p415CYC-AHK3 (the example 8). The transformation was carried out by employing Polyethylene glycol/lithium acetate (PEG/LiAc)-mediated transformation method according to the description of VII. Library Transformation & Screening Protocols disclosed in […] Two-Hybrid System 3 User Manual p.
After incubation, the growth state of the transformed cells was observed and photographed by a digital camera. […]

[6] = tested on: Arabidopsis thaliana cytokinin receptor AHK3, SEQ ID No: 4, expressed in transformed cell TM182-AHK3; details: DOLU + Glu agar media containing 10 µM of trans-zeatin, 30°C, 30 hours, compared with media containing no trans-zeatin
Description: as §1

[7] = tested on: Arabidopsis thaliana cytokinin receptor AHK2 variant AHK2Δ (partially transmembrane region-deleted type, amino acid number 196 to 1176 of SEQ ID No: 2) …; test: Growth of transformed yeast cells TM182-AHK2Δ spotted on DOLU + Glu agar media containing cytokinin; assay type: cell-based; details: 30°C, 30 hours
Description: as §1

[8] = DOLU + Glu agar media, cytokinin 1 nM to 100 µM
[9] = DOLU + Glu agar media containing 10 µM of trans-zeatin, compared with media containing no trans-zeatin

SMILES: CC1=CC(=O)CC(C)(C)[C@@]1(O)/C=C/C(C)=C\C(=O)O [Compound A, Abscisic acid]
- optical density (OD620) of the culture solutions of the transformed cells [1]: 0.54
- optical density (OD620) of the culture solutions of the transformed cells [2]: 0.01

SMILES: c1ccc(CNc2ncnc3nc[nH]c23)cc1 [Compound B, 6-Benzyl aminopurine]
- optical density (OD620) of the culture solutions of the transformed cells [1]: 0.88
- optical density (OD620) of the culture solutions of the transformed cells [2]: 0.45
- optical density (OD620) of the culture solutions of the transformed cells [3]: 0.89

SMILES: C/C(=C/CNc1ncnc2[nH]cnc12)CO [cis-zeatin]
- lowest observed supply concentration in which the transformed cells could be grown [4, 8]: 10 µ M
- lowest observed supply concentration in which the transformed cells could be grown [5]: no growth

SMILES: C/C(=C\CNc1ncnc2[nH]cnc12)CO [trans-zeatin]
- growth state of the transformed cells [6]: high growth
- growth state of the transformed cells [4, 9]: high growth
- growth state of the transformed cells [5, 9]: high growth
- lowest observed supply concentration in which the transformed cells could be grown [5]: 10 µ M
- growth state of the transformed cells [7, 9]: high growth
- lowest observed supply concentration in which the transformed cells could be grown [7, 8]: 100 nM
